Experimental data reported in publication PMC6100008, “Fingerprint-Based Machine Learning Approach to Identify Potent and Selective 5-HT2BR Ligands” (Molecules : A Journal of Synthetic Chemistry and Natural …, 2018).
Like-named read-outs stand apart in the source and are kept apart here. Each block holds one compound with its values, some of them ahead of it.

How the values were obtained:
5-HT1B = details: Figure 1; ref 21 (compound 1), ChEMBL (compounds 2, 3); cited from earlier work
5-HT2B [1] = biological target: 5-HT2B; design: method as in earlier work; details: Figure 1; ref 21 (1), ChEMBL (2, 3), ref 24 (5), ref 26 (7); cited from earlier work
5-HT2B [2] = details: cited from earlier work
5-HT2B [3] = test system: 5-HT2B; design: method as in PMID 8709108; details: Figure 1; cited from earlier work
[4] = biological target: T1, human serotonin 5-HT2A receptor (Homo sapiens, UniProt P28223); test: Competition binding in human 5-HT2A receptor ([3H]-Ketanserin, HEK293 membranes); details: 5-HT panel screening; mean ± SD
T1 construct: expressed in transfected cells

human 5-HT2B receptor = human 5-HT2B receptor (Homo sapiens, UniProt P41595); test: Competition binding in human 5-HT2B receptor ([3H]-LSD, CHO-5-HT2B membranes); details: for 5-HT2BR affinity range in words: conclusions; for inhibition at 10 µM: read-out: 5-HT2B (%) percentage of inhibition
human serotonin 5-HT1AR = biological target: T2, human serotonin 5-HT1AR (Homo sapiens, UniProt P08908); test: Competition binding in human 5-HT1A receptor ([3H]-8-OH-DPAT, HEK293 membranes); details: 5-HT panel screening; mean ± SD
T2 construct: expressed in transfected cells
T2 sequence (P08908 1-422): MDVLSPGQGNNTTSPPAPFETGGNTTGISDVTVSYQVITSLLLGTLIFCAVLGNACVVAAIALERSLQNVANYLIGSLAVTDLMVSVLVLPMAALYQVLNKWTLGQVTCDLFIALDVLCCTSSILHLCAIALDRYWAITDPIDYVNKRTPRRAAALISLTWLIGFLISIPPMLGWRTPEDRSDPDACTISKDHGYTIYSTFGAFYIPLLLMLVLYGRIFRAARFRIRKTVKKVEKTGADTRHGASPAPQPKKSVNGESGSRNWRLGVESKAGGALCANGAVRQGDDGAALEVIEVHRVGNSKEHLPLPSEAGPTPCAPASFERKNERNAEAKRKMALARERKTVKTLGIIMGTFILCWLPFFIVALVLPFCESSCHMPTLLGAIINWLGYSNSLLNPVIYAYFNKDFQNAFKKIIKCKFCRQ

[5] = biological target: T3, human serotonin 5-HT6 receptor (Homo sapiens, UniProt P50406); test: Competition binding in human 5-HT6 receptor ([3H]-LSD, HEK293 membranes); details: 5-HT panel screening; mean ± SD
T3 construct: expressed in transfected cells

[6] = biological target: T4, human serotonin 5-HT7b receptor (Homo sapiens, UniProt P34969); test: Competition binding in human 5-HT7 receptor ([3H]-5-CT, HEK293 membranes); details: 5-HT panel screening; mean ± SD
T4 construct: expressed in transfected cells

human 5-HT1B receptor = biological target: T5, human 5-HT1B receptor (Homo sapiens, UniProt P28222); test: Competition binding in human 5-HT1B receptor ([3H]-GR125743, Hela-5-HT1B membranes); details: for Ki: measured if inhibition at 10 µM exceeded 50%, mean ± SD of three assays; for inhibition at 10 µM: 10 µM compound, mean ± SD of three independent assays with duplicate measurements, read-out: 5-HT1B (%) percentage of inhibition
T5 construct: expressed in transfected cells; host or cells: HeLa (Hela-5-HT1B cell line, Lot A001/14-11-2011)
T5 sequence (P28222 whole entry): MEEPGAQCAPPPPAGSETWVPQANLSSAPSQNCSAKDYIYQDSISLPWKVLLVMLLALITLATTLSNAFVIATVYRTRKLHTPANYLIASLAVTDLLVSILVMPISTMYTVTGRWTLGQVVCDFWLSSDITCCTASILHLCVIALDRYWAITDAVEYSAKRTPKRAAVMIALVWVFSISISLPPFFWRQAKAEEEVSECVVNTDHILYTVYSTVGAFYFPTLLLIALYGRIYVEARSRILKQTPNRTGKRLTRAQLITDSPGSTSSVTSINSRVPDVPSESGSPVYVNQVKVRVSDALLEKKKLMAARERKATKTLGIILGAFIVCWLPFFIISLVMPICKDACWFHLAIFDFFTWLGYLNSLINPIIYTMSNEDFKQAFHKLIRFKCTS

Chain of human 5-HT2B receptor (P41595 whole entry): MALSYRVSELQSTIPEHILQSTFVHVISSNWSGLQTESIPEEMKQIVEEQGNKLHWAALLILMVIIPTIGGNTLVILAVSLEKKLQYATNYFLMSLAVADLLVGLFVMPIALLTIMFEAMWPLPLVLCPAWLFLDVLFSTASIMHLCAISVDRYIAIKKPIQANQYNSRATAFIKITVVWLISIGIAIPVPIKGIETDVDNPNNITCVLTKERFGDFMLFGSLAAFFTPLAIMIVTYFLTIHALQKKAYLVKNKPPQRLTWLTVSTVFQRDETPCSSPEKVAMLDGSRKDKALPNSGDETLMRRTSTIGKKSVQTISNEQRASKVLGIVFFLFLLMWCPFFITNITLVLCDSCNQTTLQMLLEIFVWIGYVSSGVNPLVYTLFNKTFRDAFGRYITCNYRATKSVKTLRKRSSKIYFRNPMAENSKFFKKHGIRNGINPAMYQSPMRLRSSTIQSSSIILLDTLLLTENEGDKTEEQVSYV
T1 sequence (P28223 whole entry): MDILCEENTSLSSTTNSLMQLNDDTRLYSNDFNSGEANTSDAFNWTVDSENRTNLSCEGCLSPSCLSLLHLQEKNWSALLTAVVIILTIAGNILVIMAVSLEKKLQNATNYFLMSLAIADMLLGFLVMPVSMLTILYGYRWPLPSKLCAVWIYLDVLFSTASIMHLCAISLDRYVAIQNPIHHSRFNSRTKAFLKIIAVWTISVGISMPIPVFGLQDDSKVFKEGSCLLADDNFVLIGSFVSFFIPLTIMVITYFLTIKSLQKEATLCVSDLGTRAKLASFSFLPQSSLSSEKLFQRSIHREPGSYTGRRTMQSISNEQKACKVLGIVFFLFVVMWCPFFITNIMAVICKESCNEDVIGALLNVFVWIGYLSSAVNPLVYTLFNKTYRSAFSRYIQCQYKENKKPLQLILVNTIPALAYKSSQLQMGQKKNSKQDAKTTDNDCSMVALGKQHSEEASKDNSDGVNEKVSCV
T4 sequence (P34969 1-432): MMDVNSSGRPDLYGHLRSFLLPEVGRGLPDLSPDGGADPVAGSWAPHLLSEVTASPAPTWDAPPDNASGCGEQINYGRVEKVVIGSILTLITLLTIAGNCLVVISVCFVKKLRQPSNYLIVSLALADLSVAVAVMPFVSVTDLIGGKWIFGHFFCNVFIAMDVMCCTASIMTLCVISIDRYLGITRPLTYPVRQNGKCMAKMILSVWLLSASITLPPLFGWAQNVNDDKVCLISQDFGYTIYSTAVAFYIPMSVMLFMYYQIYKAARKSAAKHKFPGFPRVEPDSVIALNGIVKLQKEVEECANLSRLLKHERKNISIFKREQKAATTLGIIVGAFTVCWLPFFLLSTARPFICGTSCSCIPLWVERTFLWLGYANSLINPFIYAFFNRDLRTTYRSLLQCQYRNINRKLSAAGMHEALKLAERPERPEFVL
T3 sequence (P50406 whole entry): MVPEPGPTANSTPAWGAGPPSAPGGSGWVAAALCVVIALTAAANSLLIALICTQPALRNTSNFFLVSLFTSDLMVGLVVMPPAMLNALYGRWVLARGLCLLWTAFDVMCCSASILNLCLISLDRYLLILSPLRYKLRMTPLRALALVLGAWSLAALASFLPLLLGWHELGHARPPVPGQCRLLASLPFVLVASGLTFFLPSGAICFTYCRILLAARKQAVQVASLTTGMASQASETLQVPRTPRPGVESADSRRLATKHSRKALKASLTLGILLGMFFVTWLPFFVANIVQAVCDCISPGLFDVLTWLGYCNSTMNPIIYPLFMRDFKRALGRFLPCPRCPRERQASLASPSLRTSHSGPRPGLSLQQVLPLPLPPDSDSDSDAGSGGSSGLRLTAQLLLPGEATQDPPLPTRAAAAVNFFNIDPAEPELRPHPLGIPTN

SMILES: CCOC(=O)c1cccc(NC2=NC(N)=NC3(CCCCC3)N2)c1 [Compound 1]
- pKi (5-HT1B) (5-HT1B): > 5
- pKi (5-HT2B) (5-HT2B [1]): 8.14

SMILES: COc1cc(N)c(Cl)cc1C(=O)NC1CCN(CCCOc2ccc(F)cc2)CC1OC (centres unmarked) [Compound 2]
- pKi (5-HT1B) (5-HT1B): > 5.3

SMILES: CCCCN1CCC(COC(=O)c2cc(F)c(N)c3c2OCCO3)CC1 [Compound 3]
- pKi (5-HT1B) (5-HT1B): > 5
- pKi (5-HT2B) (5-HT2B [1]): 6.78

SMILES: CC(C)c1cc(-c2ccc(F)c3ccccc23)nc(N)n1 [Compound 4, RS-127445]
- IC50 (5-HT2B [2]; Figure 1, read-out: IC50 (5-HT2B)): 0.0007 µM

SMILES: Cc1cc([N+](=O)[O-])c(N2CCN(Cc3ccccc3)CC2)cc1N [Compound 5, EGIS-7625]
- pKi (5-HT2B) (5-HT2B [1]): 9.0

SMILES: COc1ccc(CC2NCCc3c2[nH]c2ccccc32)cc1OC (centres unmarked) [Compound 6, LY-23728]
- pKB (5-HT2B) (5-HT2B [3]): 9.17

SMILES: Cn1ccc2cc(NC(=O)Nc3cccnc3)ccc21 [Compound 7, SB-200646A]
- pKi (5-HT2B) (5-HT2B [1]): 7.5

SMILES: Cc1c(C(=O)N2CCC(c3ncc[nH]3)CC2)n[nH]c1-c1ccc(Cl)cc1 [Compound 8]
- Ki [4]: > 20 µM
- Ki (human 5-HT2B receptor): 0.0003 ± 7e-05 µM
- 5-HT2BR affinity range in words (human 5-HT2B receptor): subnanomolar
- selectivity for 5-HT2BR versus 5-HT1BR (human 5-HT2B receptor; ratio of 5-HT1BR and 5-HT2BR affinity): ten thousand-fold
- Ki (human serotonin 5-HT1AR): > 20 µM
- Ki [5]: 13.2 ± 1.5 µM
- Ki [6]: > 20 µM
- Ki (human 5-HT1B receptor): 2.93 ± 0.321 µM

SMILES: Cc1c(-c2ccccc2)sc(NC(=O)Cn2c(=O)cnc3ccccc32)c1C(=O)N1CCCCC1 [Compound 9]
- Ki [4]: > 20 µM
- Ki (human 5-HT2B receptor): 0.235 ± 0.0159 µM
- 5-HT2BR affinity range in words (human 5-HT2B receptor): submicromolar
- Ki (human serotonin 5-HT1AR): > 20 µM
- Ki [5]: 7.5 ± 0.9 µM
- Ki [6]: > 20 µM
- Ki (human 5-HT1B receptor): 2.1 ± 0.622 µM

- Ki (human 5-HT2B receptor): 2.61 ± 0.422 µM
- 5-HT2BR affinity range in words (human 5-HT2B receptor): low micromolar
- inhibition at 10 µM (human 5-HT1B receptor): 7 ± 4%
SMILES: Cn1c(CN2CCCCC2)nnc1C1CCCN(CCc2ccccc2)C1 (centres unmarked) [Compound 10]

- inhibition at 10 µM (human 5-HT2B receptor): 40 ± 3%
- inhibition at 10 µM (human 5-HT1B receptor): 12 ± 4%
SMILES: Cc1cccc2[nH]c(C3CCN(C(=O)c4cnn[nH]4)CC3)nc12 [Compound 11]

- inhibition at 10 µM (human 5-HT2B receptor): 36 ± 4%
- inhibition at 10 µM (human 5-HT1B receptor): 7 ± 1%
SMILES: COc1cccc(-c2n[nH]cc2C(=O)N2CCCC(c3cc(O)ncn3)C2)c1 (centres unmarked) [Compound 12]

- inhibition at 10 µM (human 5-HT2B receptor): 34 ± 4%
- inhibition at 10 µM (human 5-HT1B receptor): 19 ± 3%
SMILES: Cc1ncc(C(=O)N2CCC(c3nccn3Cc3ccccc3)CC2)c(=O)[nH]1 [Compound 13]

- inhibition at 10 µM (human 5-HT2B receptor): 34 ± 4%
- inhibition at 10 µM (human 5-HT1B receptor): 26 ± 4%
SMILES: CCOC(=O)c1c(CN2CCCCC2)n(C)c2c1cc(OC(C)=O)c1c2c(-c2ccccc2)nn1-c1ccccc1 [Compound 14]

- inhibition at 10 µM (human 5-HT2B receptor): 31 ± 4%
- inhibition at 10 µM (human 5-HT1B receptor): 28 ± 3%
SMILES: COc1ccc2c(c1)NC1(CCN(C(=O)c3ccc(C)c(C)c3)CC1)c1cccn1-2 [Compound 15]

- inhibition at 10 µM (human 5-HT2B receptor): 24 ± 4%
- inhibition at 10 µM (human 5-HT1B receptor): 1 ± 1%
SMILES: CCc1ccc(NC(=O)c2ccc(-c3noc(C4CCN(C(=O)c5ccc(F)cc5)CC4)n3)cc2)cc1 [Compound 16]

SMILES: O=C(c1ccc(-c2ccccc2)cc1)N1CCC(c2nc3ccccc3[nH]2)CC1 [Compound 17]
- IC50 (5-HT2B [2]; Figure 6, closest literature analogue, read-out: IC50 (5-HT2BR)): 0.0024 µM

- Kd (human 5-HT1B receptor; radioligand used at […], read-out: KD of radioligand at 5-HT1BR): 0.00074 µM
SMILES: COc1ccc(NC(=O)c2ccc(-c3ccncc3)c(C)c2)cc1N1CCN(C)CC1 [[^3H]-GR125743, reference compound]
